Calls of active or inactive are those of the source. No cut-off for these calls is given here.
Biological target: Cyclin-dependent kinase 2 (Homo sapiens) (UniProt P24941)
Test: Binding affinity to human CDK2

Activity: Active
SMILES: O=c1c(O)c(-c2ccc(O)c(O)c2)oc2c(O[C@@H]3O[C@H](CO)[C@@H](O)[C@H](O)[C@H]3O)c(O)cc(O)c12

From ChEMBL document CHEMBL1140807, “A flavonoid gossypin binds to cyclin-dependent kinase 2” (Bioorg Med Chem Lett, 2008)
